Six compounds from patent US4594348A, “Use of some 2-[2-[4-phenyl-1-piperazinyl]ethyl]-1H-naphth-[1,2-D]imidazole derivatives and their pharmaceutically acceptable salts in the treatment of cardiovascular diseases” (Gruppo Lepetit S.p.A., priority 1984, dated 1986) can be followed below.

Assay [1] concerns conscious renal hypertensive dogs. As to the kind of experiment: Systolic blood pressure in conscious renal hypertensive dogs (oral, Goldblatt's method). The class given is in vivo, dog (mongrel). The following applies: Table I, renal hypertensive dogs, oral. How it is done: The experiments herein described which use renal hypertensive dogs are conducted essentially as described in the above cited text.
More particularly, in the experiments with conscious renal hypertensive dogs, mongrel dogs with two clips on the renal arteries were used according to the Goldblatt's method. The compounds were administered by oral route as powder in gelatine capsules. Systolic blood pressure (SBP) was registered at the tail (indirect method).
^a S.B.P. = Systolic blood pressure. It is determined after oral
administration where three animals were employed for each dose. It is
expressed in mmHg as mean value ± SE.
^b % Δ = % variation of the S.B.P. over the basal value (time
0) at the indicated time after administration.

For assay [2], the system named is conscious normotensive dogs. As to the kind of experiment: Blood pressure in conscious normotensive dogs (oral). In kind it is in vivo, dog (mongrel). The following applies: Table II, oral. On the procedure: As for the experiments with conscious normotensive dogs, mongrel dogs with incannulated abdominal aorta or with incannulated abdominal aorta and cardiac left ventricle were used. The compounds were administered by oral route as powder in gelatine capsules. Mean blood pressure (M.B.P.) was registered directly using a Bentley pressure transducer.

As to `COc1cccc(N2CCN(CCc3nc4ccc5ccccc5c4n3C(C)C)CC2)c1` [Compound 5, 2-[2-[4-(3-methoxyphenyl)-1-piperazinyl]ethyl]-1-(1-methylethyl)-1H-naphth[1,2-d]imidazole], the “% systolic pressure variation” value in assay [1] (20 mg/kg) is -20%.

As for `Cn1c(CCN2CCN(c3ccc(Cl)cc3)CC2)nc2ccc3ccccc3c21` [Compound 4, 2-[2-[4-(4-chlorophenyl)-1-piperazinyl]ethyl]-1-methyl-1H-naphth[1,2-d]imidazole], the results for the “% systolic pressure variation” value in assay [1] (10 mg/kg) and in assay [1] (20 mg/kg) were -29% and -31%, respectively.

Turning to `Cn1c(CCN2CCN(c3ccccc3)CC2)nc2ccc3ccccc3c21` [Compound 2, 2-[2-(4-phenyl-1-piperazinyl)ethyl]-1-methyl-1H-naphth-[1,2-d]imidazole], the “% systolic pressure variation” value in assay [1] (10 mg/kg) was -32%. Besides, the “% systolic blood pressure variation” value in assay [2] (10 mg/kg) was -30%.

As to `Cn1c(CCN2CCN(c3cccc(C(F)(F)F)c3)CC2)nc2ccc3ccccc3c21` [Compound 6, 2-[2-[4-(3-trifluoromethylphenyl)-1-piperazinyl]ethyl]-1-methyl-1H-naphth[1,2-d]imidazole], in assay [1] (20 mg/kg), the “% systolic pressure variation” value is recorded as -39%.

With `CC(C)n1c(CCN2CCN(c3ccc(Cl)cc3)CC2)nc2ccc3ccccc3c21` [Compound 7, 2-[2-[4-(4-chlorophenyl)-1-piperazinyl]ethyl]-1-(1-methylethyl)-1H-naphth[1,2-d]imidazole], the figures for the “% systolic pressure variation” value in assay [1] (2 mg/kg) and in assay [1] (5 mg/kg) were -14% and -35%, respectively.

As to `CC(C)n1c(CCN2CCN(c3ccccc3)CC2)nc2ccc3ccccc3c21` [Compound 1, 2-[2-(4-phenyl-1-piperazinyl)ethyl]-1-(1-methylethyl)-1H-naphth[1,2-d]imidazole], the “% systolic blood pressure variation” value in assay [2] (1 mg/kg) was -17%; in assay [2] (5 mg/kg) it was -37%.
